Experimental data reported in patent publication US10981932B2, “Macrocyclic indole derivatives” (Bayer Aktiengesellschaft, priority 2016, dated 2021).
Where “and” joins values, the source holds several entries; their conditions need not be identical. Identical values can stand only once. Like-named read-outs stand apart in the source and are kept apart here.

Legend:
[1] = 11-membered ring
[2] = target: MCL-1 (Homo sapiens, UniProt Q07820); test: Protein-protein interaction assay MCL-1/Noxa BH3 peptide (MCL-1 assay), TR-FRET; format: binding; settings: MBP-MCL-1 / Noxa BH3-derived peptide, median
Outline: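 IC50 came from a 4-parameter fit of the normalized 665/620 nm TR-FRET ratio (anti-MBP Eu-cryptate/streptavidin-XL665). Compounds (0.1 nM–20 μM, duplicates) were preincubated 10 min at 22 °C with 1 nM MBP-MCL-1 in pH 7 Tris/NaCl/KF buffer, then read after 1 h at 22 °C plus overnight at 4 °C.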

[3] = target: SUDHL5; test: Induction of caspase-3/7 activity (Caspase-Glo 3/7), SUDHL5; format: cell-based; settings: caspase-3/7 induction, SUDHL5 cells, 3 h treatment; median
Outline: (§1)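 DLBCL lines SUDHL5 and SUDHL10 treated with compounds for 3 h at 37 °C; caspase-3/7 activity read by Caspase-Glo 3/7 luminescence. Medium-only background subtracted; EC50 fitted with bottom fixed at 1 and top fixed at the reference compound's maximal induction.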

[4] = tested on: MV-4-11; test: Anti-proliferative effect (CellTiter-Glo, 72 h), MV-4-11; format: cell-based; settings: MV-4-11 cells, median, read-out: IC50 antiproliferation assay MV-4-11 [M] (median)
Outline: (§2)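 72 h compound treatment, 37 °C humidified; CellTiter-Glo added, 10 min incubation, luminescence read; day 0 plate read in parallel for baseline.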

[5] = tested on: SUDHL5; test: Anti-proliferative effect (CellTiter-Glo, 72 h), SUDHL5; format: cell-based; settings: SUDHL5 cells, antiproliferation, median, read-out: Antiproli SUDHL5 [M] (median)
Outline: as §2

[6] = tested on: SUDHL10
[7] = tested on: A2780; test: Anti-proliferative effect (CellTiter-Glo, 72 h), A2780; format: cell-based; settings: A2780 cells, median, read-out: IC50 antiproliferation assay A2780 [M] (median)
Outline: as §2

[8] = target: SUDHL10; test: Induction of caspase-3/7 activity (Caspase-Glo 3/7), SUDHL10; format: cell-based; settings: caspase-3/7 induction, SUDHL10 cells, 3 h treatment; median
Outline: as §1

[9] = tested on: SUDHL5
[10] = tested on: SUDHL10; test: Anti-proliferative effect (CellTiter-Glo, 72 h), SUDHL10; format: cell-based; settings: SUDHL10 cells, antiproliferation, 72 h incubation, median, read-out: Antiproli SUDHL10 [M] (median)
Outline: as §2

[11] = tested on: OPM2; test: Anti-proliferative effect (CellTiter-Glo, 72 h), OPM2; format: cell-based; settings: OPM2 cells, median, read-out: IC50 antiproliferation assay OPM2 [M] (median)
Outline: as §2

Sequence of MCL-1 (Q07820 whole entry): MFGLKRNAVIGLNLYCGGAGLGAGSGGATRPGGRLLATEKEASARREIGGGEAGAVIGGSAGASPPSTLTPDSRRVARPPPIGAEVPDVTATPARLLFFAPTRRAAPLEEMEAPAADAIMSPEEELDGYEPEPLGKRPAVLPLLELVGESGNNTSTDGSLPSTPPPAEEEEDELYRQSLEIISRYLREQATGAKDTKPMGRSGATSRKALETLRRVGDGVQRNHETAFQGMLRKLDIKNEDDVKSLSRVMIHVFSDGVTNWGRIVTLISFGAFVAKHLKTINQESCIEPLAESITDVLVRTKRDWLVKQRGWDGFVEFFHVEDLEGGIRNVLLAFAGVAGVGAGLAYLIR

Molecule: CCOC(=O)c1[nH]c2c(-c3c(CC)nn(C)c3CO)c(C)ccc2c1CCCO[Si](C)(C)C(C)(C)C
- ring closure, isolated yield ([1]; the molecule shown is the open-chain precursor, crosslinker bond, (2Z)-1,4-dichlorobut-2-ene/NaH, DMF, 65.1 mM): 68.9%

Molecule: CCOC(=O)c1[nH]c2c(-c3c(CO)nn(C)c3CC)cccc2c1CCCO[Si](C)(C)C(C)(C)C
- ring closure, isolated yield ([1]; the molecule shown is the open-chain precursor, crosslinker bond, (2Z)-1,4-dichlorobut-2-ene/NaH, DMF, 65.6 mM): 75.3%

Molecule: CCOC(=O)c1[nH]c2c(-c3c(CO)nn(CCN4CCOCC4)c3C)c(C)ccc2c1CCCO[Si](C)(C)C(C)(C)C
- ring closure, isolated yield ([1]; the molecule shown is the open-chain precursor, crosslinker bond, (2Z)-1,4-dichlorobut-2-ene/NaH, DMF, 65.7 mM): 48.3%

Molecule: CCc1c2c(nn1C)COCCCCn1c(C(=O)O)c(CCCOc3cccc4cc(F)ccc34)c3cccc-2c31 (racemic) [Example 281, (rac)-3-ethyl-7-{3-[(6-fluoronaphthalen-1-yl)oxy]propyl}-2-methyl-2,10,11,12,13,15-hexahydropyrazolo[4′,3′:9,10][1,6]oxazacycloundecino[8,7,6-hi]indole-8-carboxylic Acid]
- IC50 [2]: 0.00163 µM
- EC50 [3]: 1.45 µM
- IC50 [4]: 4.74e-06 M
- IC50 ([5]; 72 h incubation): 2.48e-06 M
- IC50 [6]: 2.58 µM
- IC50 [7]: 1.39e-05 M
- EC50 [8]: 2.78 µM
- IC50 [9]: 1.85 µM
- IC50 [10]: 6.99e-06 M

Molecule: CCc1nn(C)c2c1-c1cccc3c(CCCOc4cccc5cc(C(F)(F)F)ccc45)c(C(=O)O)n(c13)CCCCOC2 (racemic) [Example 313, (rac)-12-ethyl-10-methyl-1-(3-((6-(trifluoromethyl)naphthalen-1-yl)oxy)propyl)-4,5,6,7,9,10-hexahydropyrazolo[4′,3′:9,10][1,6]oxaazacycloundecino[8,7,6-hi]indole-2-carboxylic Acid]
- IC50 [2]: 0.0999 µM
- EC50 [3]: > 33 µM
- IC50 [4]: 2e-05 M
- IC50 ([5]; 72 h): 7.48e-06 M
- IC50 [6]: 27.1 µM
- IC50 [7]: 1.05e-05 M
- EC50 [8]: > 33 µM
- IC50 [9]: 30.9 µM

Molecule: CN1CCCn2c(C(=O)O)c(CCCOc3cccc4ccccc34)c3cccc(c32)-c2c(CCN3CCOCC3)nn(C)c2C1 (single isomer, unassigned; enantiomer 1) [Example 125, 7,9-dimethyl-11-[2-(morpholin-4-yl)ethyl]-1-[3-(naphthalen-1-yloxy)propyl]-4,5,6,7,8,9-hexahydropyrazolo[3′,4′:7,8][1,5]diazecino[9,10,1-hi]indole-2-carboxylic Acid (Enantiomer 1)]
- IC50 [2]: 0.0108 µM
- EC50 [3]: 6.2 µM
- IC50 [4]: 2.02e-06 M
- IC50 ([5]; 72 h incubation): 2.53e-06 M
- IC50 [6]: 13.9 µM
- IC50 [7]: 8.42e-06 M
- EC50 [8]: 14 µM
- IC50 [11]: 1.15e-05 M
- IC50 [9]: 6.3 µM
- IC50 [10]: 7.66e-06 M

Molecule: Cn1nc(CN2CCOCC2)c2c1COCCCCn1c(C(=O)O)c(CCCOc3cccc4ccccc34)c3cccc-2c31 (single isomer, unassigned; enantiomer 1) [Example 136, 1-methyl-3-(morpholin-4-ylmethyl)-7-[3-(naphthalen-1-yloxy)propyl]-1,10,11,12,13,15-hexahydropyrazolo[4′,3′:9,10][1,6]oxazacycloundecino[8,7,6-hi]indole-8-carboxylic Acid (Enantiomer 1)]
- IC50 [2]: 0.0228 µM
- EC50 [3]: > 33 µM
- IC50 [6]: > 33 µM
- IC50 [7]: > 3.3e-05 M
- EC50 [8]: > 33 µM
- IC50 [11]: > 3.3e-05 M
- IC50 [9]: > 33 µM
- IC50 [10]: 8.9e-06 M

Molecule: Cn1nc(CN2CCOCC2)c2c1COCCCn1c(C(=O)O)c(CCCOc3cccc4ccccc34)c3cccc-2c31 (single isomer, unassigned; enantiomer 1) [Example 139, 9-methyl-11-(morpholin-4-ylmethyl)-1-[3-(naphthalen-1-yloxy)propyl]-5,6,8,9-tetrahydro-4H-pyrazolo[4′,3′:8,9][1,5]oxazecino[7,6,5-hi]indole-2-carboxylic Acid (Enantiomer 1)]
- IC50 [2]: 0.0422 µM
- EC50 [3]: > 33 µM
- IC50 [6]: > 33 µM
- IC50 [7]: > 3.3e-05 M
- EC50 [8]: > 33 µM
- IC50 [11]: > 3.3e-05 M
- IC50 [9]: > 33 µM
- IC50 [10]: 2.67e-05 M

Molecule: CN1CCCn2c(C(=O)O)c(CCCOc3cccc4ccccc34)c3cccc(c32)-c2c(CCN3CCOCC3)nn(C)c2C1 (single isomer, unassigned; enantiomer 2) [Example 126, 7,9-dimethyl-11-[2-(morpholin-4-yl)ethyl]-1-[3-(naphthalen-1-yloxy)propyl]-4,5,6,7,8,9-hexahydropyrazolo[3′,4′:7,8][1,5]diazecino[9,10,1-hi]indole-2-carboxylic Acid (Enantiomer 2)]
- IC50 [2]: 0.0845 µM
- EC50 [3]: 27.9 µM
- IC50 ([5]; 72 h incubation): 1.68e-05 M
- IC50 [6]: > 33 µM
- IC50 [7]: 3.19e-05 M
- EC50 [8]: > 33 µM
- IC50 [11]: > 3.3e-05 M
- IC50 [9]: 27.3 µM
- IC50 [10]: 1.51e-05 M

Molecule: Cn1nc(CN2CCOCC2)c2c1COCCCn1c(C(=O)O)c(CCCOc3cccc4ccccc34)c3cccc-2c31 (single isomer, unassigned; enantiomer 2) [Example 140, 9-methyl-11-(morpholin-4-ylmethy)-1-[3-(naphthalen-1-yloxy)propyl]-5,6,8,9-tetrahydro-4H-pyrazolo[4′,3′:8,9][1,5]oxazecino[7,6,5-hi]indole-2-carboxylic Acid (Enantiomer 2)]
- IC50 [2]: 0.0114 µM
- EC50 [3]: 14.9 µM
- IC50 [4]: 2.27e-05 M
- IC50 ([5]; 72 h incubation): 1.17e-05 M
- IC50 [7]: > 3.3e-05 M
- EC50 [8]: 20.3 µM and > 33 µM
- IC50 [11]: > 3.3e-05 M
- IC50 [9]: 16.7 µM
- IC50 [10]: 1.79e-05 M

Molecule: Cc1c2c(nn1CC(F)(F)F)COCCCCn1c(C(=O)O)c(CCCOc3cccc4ccccc34)c3cccc-2c31 [Example 242, 3-methyl-7-[3-(naphthalen-1-yloxy)propyl]-2-(2,2,2-trifluoroethyl)-2,10,11,12,13,15-hexahydropyrazolo[4′,3′:9,10][1,6]oxazacycloundecino[8,7,6-hi]indole-8-carboxylic Acid]
- IC50 [2]: 0.258 µM
- EC50 [3]: > 33 µM
- IC50 ([5]; 72 h incubation): 1.52e-06 M
- IC50 [6]: > 33 µM
- IC50 [7]: 2.59e-06 M
- EC50 [8]: > 33 µM
- IC50 [9]: > 33 µM
- IC50 [10]: 2.74e-06 M

Molecule: (rac)-(E/Z)-ethyl-1,3-dimethyl-7-[3-(naphthalen-1-yloxy)propyl]-1,10,13,15-tetrahydropyrazolo[4′,3′:9,10][1,6]oxazacycloundecino[8,7,6-hi]indole-8-carboxylate
- ring closure, isolated yield ([1]; rcm bond, Grubbs II (10 mol%), DCM, 77.0 mM): 57%

Molecule: (rac)-(E/Z)-ethyl-2,3-dimethyl-7-[3-(naphthalen-1-yloxy)propyl]-2,10,13,15-tetrahydropyrazolo[4′,3′:9,10][1,6]oxazacycloundecino[8,7,6-hi]indole-8-carboxylate
- ring closure, isolated yield ([1]; rcm bond, Grubbs II (10 mol%), DCM, 77.8 mM): 15%
